Data on five compounds can be found in patent US20060159746A1, “Compositions comprising fatty acids and amino acids” (priority 2003, published 2006).

Type in all cases: in vivo
One assay relates to Lepr db mouse. Kind of assay: OGT (1 g glucose/kg) combined with oral administration of the active ingredient; postprandial glucose and insulin. Conditions: for Serum glucose levels: in mg/dL (unit assumed). The arrangement: Serum insulin levels: unit not given here. As to the method: Acute effects of a nutritional formula, Starlix® and 4-HI on glycemic control in the type 2 diabetes animal model (Lepr db mouse) were studied. Animals underwent an OGT (1 g glucose/kg) combined with oral administration of the active ingredient. The following groups were tested: (A) placebo (2% Tween 80, 20 ml/kg), (B) 4-HI (100 mg/kg), (C) guar gum (150 mg/kg), (D) Starlix® (65 mg/kg), (E) Starlix®+4-HI, and (F) Starlix®+guar gum. Postprandial glucose and insulin were studied at 0, 30, 60 and 90 min.

Assay [1] in a line: Body weight and weight gain of Lepr db/db mice fed different fatty acid diets for 6 wks. Conditions: for Body wt at 6 wks: 6 wks after dietary intervention; for Wt gain at 6 wks: 6 wks of diet. As to the method:
(§1) C57BLKS/J-Lepr^db/db male mice (4 wks of age) were obtained from Jackson Laboratory, Bar Harbor, Me. Mice were initially maintained on commercial chow for 2 wks, followed by a purified stabilization diet providing 40% en as fat and 2% en as linoleic acid (LA, 18:2n-6) for another 2 wks. At 8 wks of age, a baseline oral glucose tolerance test was conducted. Based on their OGTT profile, mice were evenly distributed among 6 groups (n=6 per each group) and were fed one of 6 experimental diets designed to establish the relative importance of specific fatty acid supplementation on ameliorating insulin resistance.
(§2) Table 1 gives the predicted fatty acid profile (% en) for the 6 experimental diets. The control diet, based on butter and palm oil blend, provided 40% en as fat with 2% en as LA. […] These Lepr db/db mice were fed one of the above 6 diets for 6 weeks.
(§3) Body weights of animals were recorded each week. Insulin tolerance testing was performed after 6 weeks of dietary intervention. Mice (non-fasted) were injected intraperitoneally with 1.5 U/kg human insulin and blood glucose concentrations were determined at 0, 15, 30 and 60 min after insulin injection by tail bleeding, using a glucometer. A week later, fasting blood samples were collected by cardiac puncture, under Co2/O2 anesthesia, for analysis of plasma insulin, triglyceride (TG) and total cholesterol (TC). […] Plasma insulin was determined using the RIA kit (Linco research Inc, MO).

Assay [2] relates to Lepr db/db mice. The assay is described as follows: Fasting plasma lipids (TG, TC) in Lepr db/db mice fed different fatty acids. The following applies: after diet feeding. As to the method:
as §1, §2, §3

Assay [3] concerns Lepr db/db mice. Kind of assay: Insulin tolerance testing (blood glucose after i.p. human insulin) after 6 weeks of dietary intervention. Conditions: 1.5 U/kg human insulin i.p. As to the method:
as §1, §2, §3

Marks after values point to notes of the source that are not given here.

Regarding `C[C@@H]([C@H](C)O)[C@H](N)C(=O)O` [4HI, 4-hydroxyisoleucine], the Serum insulin levels with Lepr db mouse (0 min of OGT) amounted to 8.17; with Lepr db mouse (30 min of OGT) it was 11.27; in the assay on Lepr db mouse (60 min of OGT), 6.41; in the assay on Lepr db mouse (90 min of OGT), 4.63. Moreover, the Serum glucose levels with Lepr db mouse (0 min of OGT) worked out at 227.7; in the assay on Lepr db mouse (30 min of OGT), 473.7; in the assay with Lepr db mouse (60 min of OGT), 494.7; in the assay on Lepr db mouse (90 min of OGT) it was 584.
For the compound `CC/C=C\C/C=C\C/C=C\C/C=C\C/C=C\C/C=C\CCC(=O)O` [DHA, docosahexaenoic acid], the “Body wt at 6 wks” value in assay [1] is on record as 48.9 ± 3.8 g. Further, the “Wt gain at 6 wks” value in assay [1] is given as 6.1 ± 5.2 g. In addition, the “Fasting plasma TC” value in the assay on Lepr db/db mice [2] is given as 288 ± 39 ^ mg/dl. The “Fasting plasma TG” value in the assay with Lepr db/db mice [2] is reported as 101 ± 14^a,c mg/dl. Besides, the “Mean blood glucose values (percentage of intial) after insulin administration” value with Lepr db/db mice [3] (0 min, non-fasted) is on record as 100 percentage of intial; in the assay on Lepr db/db mice [3] (15 min), 131 percentage of intial; with Lepr db/db mice [3] (30 min), 120 percentage of intial; in the assay with Lepr db/db mice [3] (60 min) it was 99 percentage of intial.
In the case of `CCCCC/C=C\C/C=C\CCCCCCCC(=O)O` [LA, linoleic acid], in assay [1], the “Body wt at 6 wks” value is 43.9 ± 5.4 g. Also, in assay [1], the “Wt gain at 6 wks” value is given as 2.5 ± 4.3 g. In addition, the “Fasting plasma TC” value with Lepr db/db mice [2] was 313 ± 28 ^ mg/dl. Also, the “Fasting plasma TG” value in the assay on Lepr db/db mice [2] is listed as 120 ± 24^a,b mg/dl. Also, the “Mean blood glucose values (percentage of intial) after insulin administration” value is on record as 100 percentage of intial in the assay on Lepr db/db mice [3] (0 min, non-fasted); 135 percentage of intial in the assay with Lepr db/db mice [3] (15 min); 115 percentage of intial in the assay on Lepr db/db mice [3] (30 min); 85 percentage of intial with Lepr db/db mice [3] (60 min).
Regarding `CC/C=C\C/C=C\C/C=C\CCCCCCCC(=O)O` [LNA, linolenic acid], in assay [1], the “Body wt at 6 wks” value was found to be 50.5 ± 2.4 g. The “Wt gain at 6 wks” value in assay [1] was determined as 8.3 ± 4 g. The “Fasting plasma TC” value with Lepr db/db mice [2] is given as 326 ± 13^ mg/dl. The “Fasting plasma TG” value in the assay with Lepr db/db mice [2] is listed as 142 ± 27^b mg/dl. Besides, the “Mean blood glucose values (percentage of intial) after insulin administration” value with Lepr db/db mice [3] (0 min, non-fasted) was 100 percentage of intial; in the assay on Lepr db/db mice [3] (15 min), 138 percentage of intial; in the assay with Lepr db/db mice [3] (30 min) it was 127 percentage of intial; with Lepr db/db mice [3] (60 min), 100 percentage of intial.
On to `CC(C)[C@H]1CC[C@H](C(=O)N[C@H](Cc2ccccc2)C(=O)O)CC1` [Starlix, nateglinide], for which the Serum insulin levels was found to be 9.8 in the assay on Lepr db mouse (0 min of OGT), 11.18 in the assay on Lepr db mouse (30 min of OGT), 5.38 in the assay with Lepr db mouse (60 min of OGT) and 3.75 with Lepr db mouse (90 min of OGT). The Serum glucose levels with Lepr db mouse (0 min of OGT) was determined as 210; in the assay with Lepr db mouse (30 min of OGT), 456.7; in the assay on Lepr db mouse (60 min of OGT), 497.3; in the assay with Lepr db mouse (90 min of OGT), 599. In the assay with Lepr db mouse (serum glucose in OGT), the “Hypoglycemic effect, in words” value was “significant hypoglycemic effect at T90”.
